How the values were obtained:
[1] = Homocysteine reaction time and selectivity among amino thiols (fluorescence over 0 to 30 minutes); conditions: pH 7.4 PBS buffer
Description: In order to identify whether Compound 1 (NPO-pyr) would react with various types of aminothiols including homocysteine under neutral conditions (pH 7.4), Compound 1 and aminothiol were added to an aqueous solution of neutral conditions (pH 7.4, PBS buffer) and the fluorescence emission graph was measured.
Specifically, Compound 1 (10 μM) was reacted with homocysteine (DL-homocysteine, 10 μM), cysteine (10 μM), glutathione (L-glutathione, 10 μM), and hydrogen sulfide (10 μM) in an aqueous solution (pH 7.4, PBS buffer), and the fluorescence value was measured (excitation wavelength: 460 nm). Amino thiols including homocysteine were purchased from Sigma, TCI, and a fluorophotometer (SHIMADZU CORP. RF-6000, Japan) was used for fluorescence spectra analysis. In this connection, the cell that puts the compound into each device was a standard quartz cell with a thickness of 1 cm (internal volume=[…]).

[2] = Selectivity toward biomolecules, thiols and metal ions (fluorescence at 550 nm); conditions: pH 7.4 PBS buffer, excitation 460 nm, emission 550 nm
Description: An aqueous solution (pH 7.4, PBS buffer) was used, and metal ions were purchased from Aldrich, Oriental Chemicals, Samchun chemicals, and Duksan chemicals. Compound 1 was dissolved in dimethyl sulfoxide (DMSO) at 10 mM and used, and the amount of dimethyl sulfoxide was controlled to be the same in each solvent (less than 1%) under the final solvent conditions used. The concentration of Compound 1 was 10 μM, and the biomolecule was treated identically at 10 μM. The excitation wavelength was 460 nm, and the fluorescence value at a fluorescence wavelength of 550 nm was measured using a fluorescence spectrophotometer, and is shown in FIG. 3.
The types of ions indicated on the horizontal axis in the graph of FIG. 3 are as follows: • (A) Probe 1 with DL-Homocysteine; • (B) Probe 1 with L-Cysteine; • (C) Probe 1 with L-Glutathion; • (D) Probe 1 with Hydrogen sulfide; • (E) Probe 1 with Bovine Serum Albumin; • (F) Probe 1 with Holmium (III) chloride; • (G) Probe 1 with Iron (II) chloride; • (H) Probe 1 with Iron (III) chloride; • (I) Probe 1 with Magnesium chloride; • (J) Probe 1 with Nikel (II) chloride; • (K) Probe 1 with Phosphorus pentachloride; • (L) Probe 1 with Gold trichloride; • (M) Probe 1 with Palladium (II) chloride; • (N) Probe 1 with potassium chloride; • (O) Probe 1 with Silver nitrate; • (P) Probe 1 with Sodium chloride; and • (Q) Probe 1 with Cobalt chloride.

[3] = pH-dependent homocysteine sensing ability (fluorescence at 550 nm); conditions: 10 μM probe, 10 μM homocysteine, stirred 10 minutes, excitation 460 nm, emission 550 nm
Description: The present inventors identified the homocysteine sensing ability of Compound 1 (NPO-pyr) according to acidity (pH).
Specifically, in order to observe the sensitivity of acidity (pH) to homocysteine based on the fluorescence turning-on of Compound 1, the sensitivity was identified under various acidity conditions (pH 3 to 9) while fixing the concentrations of Compound 1 (10 μM) and homocysteine (10 μM). In other words, 10 µM of homocysteine was treated under the conditions of pH 3, 5, 7, 7.4, and 9, respectively, and 10 μM of Compound 1 was stirred for 10 minutes, and then the fluorescence intensity was measured. In this connection, an excitation wavelength of 460 nm was used, and a fluorescence emission wavelength of 550 nm was measured. The fluorescence intensity is shown in the bar graph in FIG. 4.

[4] = Homocysteine sensing ability in mouse plasma (limit of detection); conditions: probe 10 μM, 10 minutes at 37° C., excitation 460 nm
Description: (§1) In order to identify the detection ability of Compound 1 (NPO-pyr) for homocysteine present in mouse plasma and feces, plasma (20 μL) isolated from blood and an extract (9.5 mg) extracted from mouse feces were dissolved in an aqueous solution (DI. H2O) (5 mL), treated with homocysteine at various concentrations (1 to 160 ng/μL), and then treated with Compound 1 (10 μM). After stirring for 10 minutes in a stirrer at 37° C. for reaction, the fluorescence spectrum was measured (excitation wavelength: 460 nm). Compound 1 was dissolved in DMSO solution at […] and used, and the amount of DMSO was ensured to be the same in each container (less than 1%) under the final solvent conditions used.

[5] = Homocysteine sensing ability in mouse feces; conditions: extract of mouse feces, probe 10 μM, 10 minutes at 37° C., excitation 460 nm
Description: as §1

[6] = Fluorescence intensity in plasma of glioblastoma mice versus normal mice; set-up: species or system mouse; conditions: plasma 7 and 14 days after the induction of glioblastoma, excitation 460 nm, emission 550 nm
Description: First, in order to prepare the experimental group, a glioblastoma mouse model was created by administering a solution containing 5.0×10^5 cells in 5 μL of cell culture media without fetal bovine serum (FBS) using LUC-U87MG cells (glioblastoma cells) to the mouse brain (thalamus).
In order to identify the reaction between Compound 1 and mouse plasma, a fluorescence measuring device (Spectro-fluorophotometer: SHIMADZU CORP. RF-6000, Japan) was used. The glass cuvette used for fluorescence measurements was a standard quartz cell with a thickness of 1 cm on all sides (internal volume=0.1 cm, Hellma Analytics, Jena, Germany).
In addition, in order to identify the reaction between Compound 1 and mouse plasma, blood was collected from the control group and the experimental group, the plasma was isolated, reacted with Compound 1, and then the fluorescence intensity was measured at an emission wavelength of 550 nm using a fluorescence measuring device (Spectro-fluorophotometer; SHIMADZU CORP. RF-6000, Japan) (excitation wavelength: 460 nm). The glass cuvette used for fluorescence measurements was a standard quartz cell with a thickness of 1 cm on all sides (internal volume=0.1 cm, Hellma Analytics, Jena, Germany).

[7] = Stability in aqueous solution; type: physicochemical; conditions: pH 7.4, PBS buffer

## O=[N+]([O-])c1ccc(Oc2ccncc2)c2nonc12 [Compound 1, 4-nitro-7-(pyridine-4-yloxy)benzo[c] [1,2,5] oxadiazole]
[1]; 10 μM probe, 10 μM homocysteine, excitation 460 nm
  time to increase in fluorescence after the addition of homocysteine (reaction time): ≤ 5 min
[1]; cysteine, glutathione, hydrogen sulfide, each 10 μM
  fluorescence emission with other amino thiols except homocysteine: no fluorescence emission was observed
[2]; 10 μM probe, 10 μM DL-homocysteine
  fluorescence intensity with homocysteine (A): strong fluorescence intensity value
[2]; 10 μM probe, 10 μM analyte
  fluorescence turn-on under amino thiol, metal ion and biomolecule conditions other than homocysteine: little fluorescence turn-on phenomenon
[2]; 10 μM
  fluorescence intensity, probe alone (Only NPO-pyr): almost no fluorescence intensity value
[3]
  sensitivity of the reaction with homocysteine at other pHs (3, 5, 9): relatively weak
  sensitivity of the reaction with homocysteine at pH 7 and 7.4: most sensitive
[4]
  LOD value for homocysteine: 0.176 ppm
[4]; printed conversion of the ppm value
  LOD value for homocysteine: 1.3 µM
[5]
  ability to sense homocysteine in mouse feces: potential to sense homocysteine
[6]
  fluorescence intensity in plasma of the experimental group (glioblastoma mice) compared to the control group (normal mice): stronger fluorescence intensity
[7]
  stability in an aqueous solution: showed stability

Reference: patent US20250224399A1, “METHOD FOR DETECTING HOMOCYSTEINE IN PLASMA AND METHOD FOR DIAGNOSING GLIOBLASTOMA BY USING NOVEL FLUORESCENT PROBE” (UNIVERSITY-INDUSTRY COOPERATION GROUP OF KYUNG HEE …, priority 2022, published 2025)
